From patent US9938262B2, “Benzamides” (Merck Patent GmbH, priority 2011, dated 2018)

Biological target: T1, FSHR (Homo sapiens, UniProt P23945)
T1 construct: expressed in transfected cells; host or cells: CHO (Cho-FSHR-LUC-1-1-43)
Test: EC50 of cyclic AMP production in CHO FSHR cells + EC20 FSH (Assay A)
Assay type: cell-based
Details: 1 h; 5 μM; effect relative to maximum response of the FSH standard; Table 1
How it was run: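 cAMP HTRF ratio (665/620 nm) read after 1 h, 37 °C exposure of CHO-FSHR cells to compound in presence of EC20 FSH ([…]) and IBMX 200 μM. Responses given relative to FSH standard maximum; EC50 derived.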

T1 sequence (P23945 18-695): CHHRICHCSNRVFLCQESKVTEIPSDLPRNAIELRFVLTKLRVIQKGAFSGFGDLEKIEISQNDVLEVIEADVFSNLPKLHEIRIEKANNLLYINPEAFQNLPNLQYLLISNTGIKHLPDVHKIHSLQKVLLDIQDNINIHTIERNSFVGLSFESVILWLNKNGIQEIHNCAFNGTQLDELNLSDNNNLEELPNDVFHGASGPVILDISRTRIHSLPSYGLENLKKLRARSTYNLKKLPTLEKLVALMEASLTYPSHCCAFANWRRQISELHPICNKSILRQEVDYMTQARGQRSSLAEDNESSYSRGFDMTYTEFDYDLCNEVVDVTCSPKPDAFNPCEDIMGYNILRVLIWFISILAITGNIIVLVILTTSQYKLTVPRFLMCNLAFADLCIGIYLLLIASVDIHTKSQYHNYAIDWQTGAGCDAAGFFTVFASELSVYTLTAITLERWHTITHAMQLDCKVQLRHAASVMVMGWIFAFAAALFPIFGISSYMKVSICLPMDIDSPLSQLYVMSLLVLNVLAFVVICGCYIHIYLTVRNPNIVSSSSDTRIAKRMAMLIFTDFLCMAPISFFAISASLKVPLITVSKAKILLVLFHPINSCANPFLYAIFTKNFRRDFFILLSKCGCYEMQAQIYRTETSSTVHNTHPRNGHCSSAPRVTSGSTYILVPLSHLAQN
T1 sequence (P01215 25-116 partner): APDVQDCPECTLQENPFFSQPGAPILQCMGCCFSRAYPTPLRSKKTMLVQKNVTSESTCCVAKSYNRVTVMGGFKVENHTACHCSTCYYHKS
T1 sequence (P01225 19-129 partner): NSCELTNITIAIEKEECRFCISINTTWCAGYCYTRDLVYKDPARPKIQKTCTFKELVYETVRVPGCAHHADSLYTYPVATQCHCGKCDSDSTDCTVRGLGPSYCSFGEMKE

activation at 5 µM | Compound
8% | Cc1ccccc1N1CCN(c2ccc(C(=O)NCCCN3CCCC3=O)cc2NC(=O)C2CCN(C)CC2)CC1 [Compound 83]
33% | O=C(NCCCN1CCCC1=O)c1ccc(N2CCN(c3ccccn3)CC2)c(NC(=O)c2ccco2)c1 [Compound 126]

The remaining lines, values behind:

Compound | activation at 5 µM
Cc1ccccc1N1CCN(c2ccc(C(=O)NCCCN3CCCC3=O)cc2NC(=O)c2cccc(C(F)(F)F)c2)CC1 [Compound 39] | 15%
Cc1ccc(C(=O)Nc2cc(C(=O)NCCCN3CCCC3=O)ccc2N2CCN(Cc3ccccc3C)[C@@H](C)C2)o1 [Compound 253] | 24%
Cc1ccccc1N1CCN(c2ccc(C(=O)NCCCN3CCCC3=O)cc2NC(=O)c2cnoc2C)CC1 [Compound 107] | 15%
Cc1ccc(N2CCN(c3ccc(C(=O)NCCCN4CCCC4=O)cc3NC(=O)c3coc(C4CC4)n3)CC2)cc1C [Compound 252] | 14%
Cc1ccccc1N1CCN(c2ccc(C(=O)NCCCN3CCCC3=O)cc2NC(=O)c2ccc(C(F)(F)F)cc2)CC1 [Compound 40] | 40%
Cc1ccccc1N1CCN(c2ccc(C(=O)NCCCN3CCCC3=O)cc2NC(=O)c2cccnc2)CC1 [Compound 37] | 37%

Same assay, conditions: CHO FSHR cells + EC20 FSH; Table 1; read-out: Assay A EC50 of cyclic AMP production

EC50 | Compound
0.1 to 1 µM | CCc1ccc(C(=O)Nc2cc(C(=O)NCCCN3CCCC3=O)ccc2N2CCN(c3ccccc3C)CC2)o1 [Compound 140]
1 to 10 µM | Cc1ccccc1N1CCN(c2ccc(C(=O)NCCCN3CCCC3=O)cc2NC(=O)CC2CC2)CC1 [Compound 219, 3-(2-Cyclopropyl-acetylamino)-N-[3-(2-oxo-pyrrolidin-1-yl)-propyl]-4-(4-o-tolyl-piperazin-1-yl)-benzamide]
1 to 10 µM | Cc1ccccc1N1CCN(c2ccc(C(=O)NCCC(C)N3CCCC3)cc2NC(=O)c2ccco2)CC1 (centres unmarked) [Compound 181]
0.1 to 1 µM | Cc1ccccc1N1CCN(c2ccc(C(=O)NCCS(=O)(=O)N3CCCC3)cc2NC(=O)c2ccco2)CC1 [Compound 119]
1 to 10 µM | CCc1ncc(C(=O)Nc2cc(C(=O)NCCCN3CCCC3=O)ccc2N2CCN(c3ccccc3C)CC2)s1 [Compound 200]
0.1 to 1 µM | Cc1ccc(C(=O)Nc2cc(C(=O)NCc3cccnc3)ccc2N2CCN(c3ccccc3C)CC2)o1 [Compound 218, 5-Methyl-furan-2-carboxylic acid [5-[(pyridin-3-ylmethyl)-carbamoyl]-2-(4-o-tolyl-piperazin-1-yl)-phenyl]-amide]
0.1 to 1 µM | Cc1ccccc1N1CCN(c2ccc(C(=O)N[C@H](CO)c3ccccc3)cc2NC(=O)c2ccco2)CC1 [Compound 67, Furan-2-carboxylic acid [5-((S)-2-hydroxy-1-phenyl-ethylcarbamoyl)-2-(4-o-tolyl-piperazin-1-yl)-phenyl]-amide]
0.1 to 1 µM | Cc1ccccc1N1CCN(c2ccc(C(=O)NCc3cccc(-c4c[nH]cn4)c3)cc2NC(=O)c2ccco2)CC1 [Compound 236]
> 10 µM | Cc1ccccc1N1CCN(c2ccc(C(=O)NCCCN3CCCC3=O)cc2NC(=O)c2scnc2C)CC1 [Compound 70]
0.1 to 1 µM | Cc1ncc(C(=O)Nc2cc(C(=O)NCCCN3CCCC3=O)ccc2N2CCN(c3ccccc3C)CC2)s1 [Compound 198]

Second part, the compound before the results:

Compound | EC50
Cc1ccccc1N1CCN(c2ccc(C(=O)NCCC3C[C@H]4CC[C@@H]3C4)cc2NC(=O)c2coc(C3CC3)n2)CC1 (some centres unmarked) [Compound 231] | 0.1 to 1 µM
Cc1ccc(C(=O)Nc2cc(C(=O)NCCCN3CCCC3=O)ccc2N2CCN(c3ccccc3F)CC2)o1 [Compound 130, 5-Methyl-furan-2-carboxylic acid {2-[4-(2-fluoro-phenyl)-piperazin-1-yl]-5-[3-(2-oxo-pyrrolidin-1-yl)-propylcarbamoyl]-phenyl}-amide] | 1 to 10 µM
Cc1ccccc1N1CCN(c2ccc(C(=O)NCCCN3CCCC3=O)cc2NC(=O)c2ccc(Cl)cc2)CC1 [Compound 29] | 0.1 to 1 µM
Cc1ccccc1N1CCN(c2ccc(C(=O)NCCCn3ccnc3C)cc2NC(=O)c2ccco2)CC1 [Compound 118] | 0.1 to 1 µM
Cc1ccccc1N1CCN(c2ccc(C(=O)NCCCN3CCCC3=O)cc2NC(=O)C2CCCO2)CC1 (centres unmarked) [Compound 92] | 1 to 10 µM
Cc1ccccc1N1CCN(c2ccc(C(=O)N[C@@H](C)c3ccccc3)cc2NC(=O)c2ccco2)CC1 [Compound 11, furan-2-carboxylic acid [5-((S)-1-phenyl-ethylcarbamoyl)-2-(4-o-tolyl-piperazin-1-yl)-phenyl]-amide] | 0.1 to 1 µM
Cc1ccccc1N1CCN(c2ccc(C(=O)NCCC3C[C@H]4CC[C@@H]3C4)cc2NC(=O)c2ccco2)CC1 (some centres unmarked) [Compound 157] | 0.1 to 1 µM
Cc1ccccc1N1CCN(c2ccc(C(=O)NCCCN3CCCC3=O)cc2NC(=O)c2cccc(F)c2)CC1 [Compound 30] | 1 to 10 µM
Cc1ccccc1N1CCN(c2ccc(C(=O)NCc3ccccc3C(N)=O)cc2NC(=O)c2ccco2)CC1 [Compound 238] | 0.1 to 1 µM
Cc1ccccc1N1CCN(c2ccc(C(=O)NCCCN3CCCC3=O)cc2NC(=O)c2ccc(Cl)cn2)CC1 [Compound 129] | 0.1 to 1 µM

Same assay, conditions: CHO FSHR cells + EC20 FSH; Table 2; read-out: Assay A EC50 of cyclic AMP production

EC50 | Compound
0.1 to 1 µM | Cc1ccccc1N1CCN(c2ccc(C(=O)N[C@@H]3CCCC[C@@H](O)[C@H]3O)cc2NC(=O)c2coc(C3CC3)n2)CC1 [Compound 479]
0.1 to 1 µM | Cc1ccccc1N1CCN(c2ccc(C(=O)NCCCn3ccnc3C)cc2NC(=O)c2coc(C3CC3)n2)CC1 [Compound 292]
1 to 10 µM | Cc1ccccc1N1CCN(c2ccc(C(=O)NCc3cccc(C(F)(F)F)c3)cc2NC(=O)c2coc(C3CC3)n2)CC1 [Compound 528]
0.1 to 1 µM | Cc1ccccc1N1CCN(c2ccc(C(=O)NCCNC3CS(=O)(=O)C[C@H]3O)cc2NC(=O)c2ccco2)CC1 (some centres unmarked) [Compound 606]
0.1 to 1 µM | Cc1ccccc1N1CCN(c2ccc(C(=O)NCCc3cccc(CN(C)C)c3)cc2NC(=O)c2ccco2)CC1 [Compound 437]
0.1 to 1 µM | Cc1ccccc1N1CCN(c2ccc(C(=O)NCCN(C)C3CCCC3)cc2NC(=O)c2ccco2)CC1 [Compound 502]
0.1 to 1 µM | O=C(NCCCN1CCCC1=O)c1ccc(N2CCN(c3ccccc3C3CC3)CC2)c(NC(=O)c2coc(C3CC3)n2)c1 [Compound 524]
0.1 to 1 µM | Cc1ccccc1N1CCN(c2ccc(C(=O)NCCCC(=O)NC3CCC3)cc2NC(=O)c2coc(C3CC3)n2)CC1 [Compound 363]
0.1 to 1 µM | Cc1ccccc1N1CCN(c2ccc(C(=O)NCCc3c[nH]cn3)cc2NC(=O)c2coc(C3CC3)n2)CC1 [Compound 293]
1 to 10 µM | Cc1ccccc1N1CCN(c2ccc(C(=O)Nc3ccnn3CC3CCOC3)cc2NC(=O)c2coc(C3CC3)n2)CC1 (centres unmarked) [Compound 412]
0.1 to 1 µM | CCC(C)NC(=O)NCCCNC(=O)c1ccc(N2CCN(c3ccccc3C)CC2)c(NC(=O)c2ccco2)c1 (centres unmarked) [Compound 511]
0.1 to 1 µM | Cc1ccccc1N1CCN(c2ccc(C(=O)NCCCNC(=O)C3CCC3)cc2NC(=O)c2coc(C3CC3)n2)CC1 [Compound 448]
0.1 to 1 µM | Cc1ccccc1N1CCN(c2ccc(C(=O)NCCCN3C(=O)CCC3=O)cc2NC(=O)c2ccc(Br)o2)CC1 [Compound 384]
0.1 to 1 µM | CCOc1cc(CCCNC(=O)c2ccc(N3CCN(c4ccccc4C)CC3)c(NC(=O)c3ccco3)c2)ccc1OC [Compound 579]
1 to 10 µM | Cc1ccccc1N1CCN(c2ccc(C(=O)NCCCN3CCCC3=O)cc2NC(=O)c2coc(C3CC3)n2)CC1=O [Compound 605]

More lines, now with the values behind:

Compound | EC50
O=C(NCCCN1CCCC1=O)c1ccc(N2CCN(c3ccccc3Br)CC2)c(NC(=O)c2coc(C3CC3)n2)c1 [Compound 313] | 0.1 to 1 µM
Cc1csc(CCCNC(=O)c2ccc(N3CCN(c4ccccc4C)CC3)c(NC(=O)c3coc(C4CC4)n3)c2)n1 [Compound 395] | 0.1 to 1 µM
Cc1ccccc1N1CCN(c2ccc(C(=O)NCCCc3cccnc3)cc2NC(=O)c2ccco2)CC1 [Compound 469] | 0.1 to 1 µM
Cc1ccccc1N1CCN(c2ccc(C(=O)NCCCN3CCCC3C(N)=O)cc2NC(=O)c2ccco2)CC1 (centres unmarked) [Compound 503] | 0.1 to 1 µM
CC(C)C(=O)N1CCN(c2ccc(C(=O)NCCCN3CCCC3=O)cc2NC(=O)c2coc(C3CC3)n2)CC1 [Compound 432] | 1 to 10 µM
Cc1ccccc1N1CCN(c2ccc(C(=O)NCCCN3C(=O)[C@@H]4CC[C@H]3C4)cc2NC(=O)c2coc(C3CC3)n2)CC1 [Compound 353] | 0.1 to 1 µM
Cc1ccccc1N1CCN(c2ccc(C(=O)NCCc3cn(C)cn3)cc2NC(=O)c2coc(C3CC3)n2)CC1 [Compound 317] | 0.1 to 1 µM
Cc1ccccc1N1CCN(c2ccc(C(=O)NCCCc3cccc(O)c3)cc2NC(=O)c2ccco2)CC1 [Compound 589] | 0.1 to 1 µM
CC(=O)N(C)CCCNC(=O)c1ccc(N2CCN(c3ccccc3C)CC2)c(NC(=O)c2coc(C3CC3)n2)c1 [Compound 360] | < 0.1 µM
Cc1ccccc1N1CCN(c2ccc(C(=O)N[C@H]3O[C@@H](CO)[C@@H]4OC(C)(C)O[C@@H]43)cc2NC(=O)c2coc(C3CC3)n2)CC1 [Compound 309] | 0.1 to 1 µM
Cc1ccc(C(=O)Nc2cc(C(=O)NCCCN3CCCC3=O)ccc2N2CCN(c3ccncc3C)CC2)o1 [Compound 475] | > 10 µM
Cc1ccccc1N1CCN(c2ccc(C(=O)NCCNC3CS(=O)(=O)C[C@@H]3O)cc2NC(=O)c2ccco2)CC1 (some centres unmarked) [Compound 607] | 0.1 to 1 µM
Cc1ccccc1N1CCN(c2ccc(C(=O)NCC(=O)NC3CCCC3)cc2NC(=O)c2coc(C3CC3)n2)CC1 [Compound 294] | 1 to 10 µM
Cc1ccc(C(=O)Nc2cc(C(=O)NC(C)CCN3CCCC3=O)ccc2N2CCN(c3ccccc3C)CC2)o1 (centres unmarked) [Compound 398] | 0.1 to 1 µM
Cc1ccc(C(=O)Nc2cc(C(=O)NCc3cccc(CN(C)C)c3)ccc2N2CCN(c3ccccc3C)CC2)o1 [Compound 544] | 1 to 10 µM
Cc1ccccc1N1CCN(c2ccc(C(=O)N[C@@H]3CCC[C@@H](O)[C@H]3O)cc2NC(=O)c2coc(C3CC3)n2)CC1 [Compound 480] | < 0.1 µM
